The record followed here is patent publication US9284296B2, “Bipyridine sulfonamide derivatives for the treatment of neurodegenerative diseases or conditions” (AUBERGINE PHARMACEUTICALS LLC, priority 2010, dated 2016).

One assay has as its system SH-SY5Y human neuroblastoma cells. The assay can be described thus: Protection against hydrogen peroxide-induced cell death. It is filed as cell-based. The conditions noted are these: Homo sapiens; SH-SY5Y cells, 1 h preincubation, 100 μM hydrogen peroxide, 24 h, LDH readout of live cells. The protocol: The aim of this assay is to determine the neuroprotective effect of the compounds when human neuroblastoma cells are exposed to the oxidative stress induced by hydrogen peroxide, which leads to cell death. Therefore the protective effect of the compounds was measured by monitoring cell survival using a suitable commercial kit (Cytotoxicity Detection Kit, Roche Diagnostics GmbH, Mannheim, Germany) based on the quantification of the lactate dehydrogenase activity obtained from lysates of the remaining live cells with a colorimetric assay yielding absorbance at 492 nm as the final readout.
SH-SY5Y human neuroblastoma cells were seeded into 96-well culture plate at a density of 10,000 cells/well. Cells were preincubated for one hour with different concentrations of the compound at a 1% (v/v) DMSO concentration in an equivolumetric mixture of Minimum Essential Medium (MEM) and Nutrient Mixture HAM F12 supplemented with 10% foetal bovine serum, 100 U/ml penicillin, 100 μg/ml streptomycin, 1 mM each of non-essential aminoacids (commercial preparation from GIBCO, Paisley, UK) and 2 mM L-glutamine. Hydrogen peroxide was then added to reach 100 μM and the incubation was extended for 24 h. Then the medium was removed and live cells, which remained attached to the bottom of the plate, were lysed by incubating them during 5 min with 50 μl of 1% (v/v) Triton X-100 in Krebs-Hepes buffer (10 mM Hepes pH7.3 with 145 mM NaCl, 5.5 mM KCl, 1 mM MgCl2, 2 mM CaCl2 and 1 mM glucose). This lysate was used to measure LDH activity using the commercial kit according to the manufacturer's instructions. In the culture plate several wells were included as a control of cell death, in these wells the cells were preincubated with 1% (v/v) DMSO before hydrogen peroxide addition. Likewise, several wells were included as control for full cell survival, in these wells the addition of H2O2 was omitted. The absorbance of each tested sample was normalized to that of the control wells, so that for every compound concentration the percentage of protective effect was calculated with the following equation:
[formula] where “S” is the absorbance of the sample being considered, “E” is the average absorbance of wells used as control of full cell survival and “B” is the average absorbance of wells used as control of cell death. The values obtained at every compound concentration were finally used to calculate the EC50 (i.e., the concentration causing 50% of protective effect) of the tested compound. For that purpose the data were fitted to a classical 4-parameters isotherm equation using the nonlinear regression function of GraphPad™ Prism 5.0 (GraphPad Software Inc.), such equation is described below:
[formula] where “L” is the lower asymptote of the theoretical sigmoidal curve, “H” is the higher asymptote, “C” is the concentration of compound and “n” is the Hill coefficient.
For the compound `COc1cc(CNS(=O)(=O)c2ccc(Cl)cc2F)nc(-c2ccccn2)c1` [Compound 57], a half-maximal effect (EC50) was put at 1.5 µM.
The same measure, in the same setting: the result for `COc1cc(CN(Cc2cc(OC)cc(-c3ccccn3)n2)S(=O)(=O)c2cccs2)nc(-c2ccccn2)c1` [Compound 25] reads 4.95 µM; that for `COc1cc(CNS(=O)(=O)c2cc(OC)ccc2OC)nc(-c2ccccn2)c1` [Compound 1, 2,5-Dimethoxy-N-(4-methoxy-[2,2′]bipyridinyl-6-ylmethyl)-benzenesulfonamide], 36 µM.
On the same count and under the same terms, the result for `COc1cc(CNS(=O)(=O)c2cccc3scnc23)nc(-c2ccccn2)c1` [Compound 61] reads 0.82 µM.
The same measure, in the same setting: the result for `COc1cc(CNS(C)(=O)=O)nc(-c2ccccn2)c1` [Compound 5, N-(4-Methoxy-[2,2′]bipyridinyl-6-ylmethyl)-methanesulfonamide] reads 39.8 µM.
With `COc1cc(CNS(=O)(=O)c2ccc(S(C)(=O)=O)cc2)nc(-c2ccccn2)c1` [Compound 22, 4-Methanesulfonyl-N-(4-methoxy-[2,2′]bipyridinyl-6-ylmethyl)-benzenesulfonamide], the midpoint of the response, the EC50, lay at 0.88 µM.
Same read-out and setting: the result for `COc1cc(CNS(=O)(=O)c2c(C)noc2C)nc(-c2ccccn2)c1` [Compound 54] reads 23.1 µM; that for `COc1cc(CNS(=O)(=O)Cc2ccc(C(F)(F)F)cc2)nc(-c2ccccn2)c1` [Compound 23, N-(4-Methoxy-[2,2′]bipyridinyl-6-ylmethyl)-C-(4-trifluoromethyl-phenyl)-methanesulfonamide], 2.91 µM.
Same read-out and setting: the result for `COc1cc(CNS(=O)(=O)c2c(F)cccc2F)nc(-c2ccccn2)c1` [Compound 58] reads 1.6 µM.
In turn, `COc1cc(CNS(=O)(=O)c2cc(F)ccc2F)nc(-c2ccccn2)c1` [Compound 59] had an EC50 of 4.8 µM.
On the same count and under the same terms, the result for `COc1cc(CNS(=O)(=O)c2cc3ccccc3o2)nc(-c2ccccn2)c1` [Compound 62] reads 1.88 µM; that for `COc1cc(CNS(=O)(=O)c2ccc(-c3cc(C)no3)o2)nc(-c2ccccn2)c1` [Compound 79], 0.72 µM; that for `COc1cc(CNS(=O)(=O)C2CCCCC2)nc(-c2ccccn2)c1` [Compound 7, Cyclohexanesulfonic acid (4-methoxy-[2,2′]bipyridinyl-6-ylmethyl)-amide], 11.2 µM.
Still for that read-out and setting: the result for `COc1cc(CNS(=O)(=O)c2cccc(Cl)c2Cl)nc(-c2ccccn2)c1` [Compound 95] reads 1.09 µM; that for `COc1cc(CNS(=O)(=O)c2ccc3ccccc3c2)nc(-c2ccccn2)c1` [Compound 15, Naphthalene-2-sulfonic acid (4-methoxy-[2,2′]bipyridinyl-6-ylmethyl)-amide], 4.8 µM; that for `COc1cc(CNS(=O)(=O)N2CCOCC2)nc(-c2ccccn2)c1` [Compound 20, Morpholine-4-sulfonic acid (4-methoxy-[2,2′]bipyridinyl-6-ylmethyl)-amide], 5.1 µM.
Still for that read-out and setting: the result for `COc1cc(CNS(=O)(=O)c2cccc3cccnc23)nc(-c2ccccn2)c1` [Compound 60] reads 3.2 µM.
`COc1cc(CNS(=O)(=O)c2cccnc2)nc(-c2ccccn2)c1` [Compound 21, Pyridine-3-sulfonic acid (4-methoxy-[2,2′]bipyridinyl-6-ylmethyl)-amide] gave an EC50 of 5.19 µM.
On the same count and under the same terms, the result for `COc1cc(CNS(=O)(=O)c2ccc(C)cc2)nc(-c2ccccn2)c1` [Compound 3, N-(4-Methoxy-[2,2′]bipyridinyl-6-ylmethyl)-4-methyl-benzenesulfonamide] reads 23 µM; that for `COc1cc(CNS(=O)(=O)C(F)(F)F)nc(-c2ccccn2)c1` [Compound 17, C,C,C-Trifluoro-N-(4-methoxy-[2,2′]bipyridinyl-6-ylmethyl)-methanesulfonamide], 0.82 µM.

A further assay deals with secretion of amyloid peptide β1-40 (Aβ1-40). The assay can be described thus: Inhibition of β-amyloid secretion (CHO7w cells stably transfected with human APP, ELISA). It counts as cell-based. The conditions noted are these: CHO-7W, 24 h incubation, range stated for the listed compounds together. The method, then:
The inhibition caused by the compounds on the secretion of amyloid peptide β1-40 (Aβ1-40) was determined by measuring the levels of this peptide in cell supernatants after incubating the cells with several concentrations of the tested compound. A CHO7w cell line, stably transfected with human amyloid precursor protein (APP), was used. Cells were dispensed in 96-well culture plates (5,000 cells/well) and grown in DMEM supplemented with 2% (v/v) foetal bovine serum, 100 U/ml penicillin, 100 μg/ml streptomycin, 2 mM L-glutamine and 200 μg/ml G418 in the presence of several concentrations of the tested compound which had been previously dissolved in DMSO (1% (v/v) DMSO final concentration). After a 24 h incubation the amount of Aβ1-40 secreted to the medium was measured with an ELISA-based commercial kit (Human Amyloid β-40 ELISA High Sensitivity Kit, Millipore, Billerica, Mass., USA) using absorbance at 450 nm as the final readout. In the culture plate several wells were included as a control for lack of Aβ1-40 secretion, in these wells the cells were incubated in the presence of 16% (v/v) DMSO to inhibit cell growth therefore abolishing Aβ1-40 secretion. Likewise, several wells were also included as a control for full Aβ1-40 secretion, in these wells the cells were grown in the presence of 1% (v/v) DMSO. The absorbance of each tested sample was normalized to that of the control wells, so that for every compound concentration the percentage of inhibition was calculated with the following equation:
[formula] where “S” is the absorbance of the sample being considered, “E” is the average absorbance of wells lacking Aβ1-40 secretion and “B” is the average absorbance of wells with full Aβ1-40 secretion. The inhibition values obtained at every compound concentration were fitted to a 4-parameters isotherm equation, as described above, to calculate the […] (i.e., the concentration causing 50% of inhibition of Ab1-40 secretion).
In turn, `COc1cc(CNS(=O)(=O)c2c(C)cccc2Cl)nc(-c2ccccn2)c1` [Compound 84] came in with a half-inhibitory concentration (IC50) of 0.3 to 42 µM.
On the same count and under the same terms, the result for `COc1cc(CNS(=O)(=O)c2ccc3c(c2)OCCO3)nc(-c2ccccn2)c1` [Compound 87] reads 0.3 to 42 µM; that for `COc1cc(CNS(=O)(=O)c2sc(Cl)nc2C)nc(-c2ccccn2)c1` [Compound 47], 0.3 to 42 µM.
The same measure, in the same setting: the result for `COc1cc(CNS(=O)(=O)c2ccc(C(C)(C)C)cc2)nc(-c2ccccn2)c1` [Compound 88] reads 0.3 to 42 µM.
The same measure, in the same setting: the result for `COc1cc(CNS(=O)(=O)c2c(Cl)cccc2Cl)nc(-c2ccccn2)c1` [Compound 97] reads 0.3 to 42 µM; that for `COc1cc(CNS(=O)(=O)c2ccccc2C#N)nc(-c2ccccn2)c1` [Compound 40], 0.3 to 42 µM.
`COc1cc(CNS(=O)(=O)c2cc(C(F)(F)F)ccc2F)nc(-c2ccccn2)c1` [Compound 66]: the 50% inhibitory concentration (IC50) was in the range of 0.3 to 42 µM.
`COc1cc(CNS(=O)(=O)c2ccc(C(F)(F)F)cc2[N+](=O)[O-])nc(-c2ccccn2)c1` [Compound 102] displayed an IC50 of 0.3 to 42 µM.
Still for that read-out and setting: the result for `COc1cc(CNS(=O)(=O)c2cc(Cl)ccc2F)nc(-c2ccccn2)c1` [Compound 44] reads 0.3 to 42 µM; that for `COc1cc(CNS(=O)(=O)c2c(F)cc(OC)cc2F)nc(-c2ccccn2)c1` [Compound 85], 0.3 to 42 µM; that for `COc1cc(CNS(=O)(=O)c2c(C)cc(C)cc2C)nc(-c2ccccn2)c1` [Compound 75], 0.3 to 42 µM.
Still for that read-out and setting: the result for `CCN(CC)CCOc1cc(CN(Cc2cc(OCCN(CC)CC)cc(-c3ccccn3)n2)S(=O)(=O)c2cccs2)nc(-c2ccccn2)c1` [Compound 29, Thiophene-2-sulfonic acid bis-[4-(2-diethylamino-ethoxy)-[2,2′]bipyridinyl-6-ylmethyl]-amide] reads 0.3 to 42 µM.
In the case of `COc1cc(CNS(=O)(=O)c2ccc(-c3ccccn3)s2)nc(-c2ccccn2)c1` [Compound 46], the IC50 fell in the range of 0.3 to 42 µM.
On the same count and under the same terms, the result for `COc1cc(CNS(=O)(=O)c2cc3ccccc3s2)nc(-c2ccccn2)c1` [Compound 73] reads 0.3 to 42 µM; that for `COc1cc(CNS(=O)(=O)CCC(F)(F)F)nc(-c2ccccn2)c1` [Compound 86], 0.3 to 42 µM; that for `COc1cc(CNS(=O)(=O)c2ccc([N+](=O)[O-])cc2)nc(-c2ccccn2)c1` [Compound 74], 0.3 to 42 µM.
On the same count and under the same terms, the result for `COc1cc(CNS(=O)(=O)c2ccc(CNC(C)=O)s2)nc(-c2ccccn2)c1` [Compound 52] reads 0.3 to 42 µM; that for `COc1cc(CNS(=O)(=O)c2cnc(Cl)nc2)nc(-c2ccccn2)c1` [Compound 107], 0.3 to 42 µM.
Take `COc1cc(CNS(=O)(=O)c2ccc(-c3ccno3)s2)nc(-c2ccccn2)c1` [Compound 42]: the IC50 was in the range of 0.3 to 42 µM.
As for `COc1ccc(S(=O)(=O)NCc2cc(OC)cc(-c3ccccn3)n2)cc1` [Compound 38, 4-Methoxy-N-(4-methoxy-[2,2′]bipyridinyl-6-ylmethyl)-benzenesulfonamide], the half-maximal inhibitory concentration (IC50) lay in the range of 0.3 to 42 µM.
As for `COC(=O)c1ccc(S(=O)(=O)NCc2cc(OC)cc(-c3ccccn3)n2)o1` [Compound 51], the 50% inhibitory concentration (IC50) was 0.3 to 42 µM.
Still for that read-out and setting: the result for `COc1cc(CNS(=O)(=O)c2ccc(-c3ccccc3)cc2)nc(-c2ccccn2)c1` [Compound 89] reads 0.3 to 42 µM.
